Where “and” joins values, the source holds several entries; their conditions need not be identical. Equal entries are not always repeated. ± gives the uncertainty stated by the source.
Experiment: xn = mol fraction of the nth substance listed

O=CO + CCCC(C)=O
viscosity [mPa·s], 101 kPa
Conditions | x1 = 0.1002 | x1 = 0.1998 | x1 = 0.3016 | x1 = 0.3992 | x1 = 0.4881 | x1 = 0.5974 | x1 = 0.7186 | x1 = 0.8392 | x1 = 0.8701
298.15 K | 0.5043 ± 0.013 | 0.5479 ± 0.015 | 0.6037 ± 0.016 | 0.6689 ± 0.018 | 0.7348 ± 0.019 | 0.8418 ± 0.022 | 1.003 ± 0.026 | 1.198 ± 0.032 | 1.262 ± 0.033
308.15 K | 0.4519 ± 0.012 | 0.4876 ± 0.013 | 0.5327 ± 0.014 | 0.586 ± 0.016 | 0.6424 ± 0.017 | 0.7294 ± 0.019 | 0.8532 ± 0.023 | 1.011 ± 0.027 | 1.058 ± 0.028
318.15 K | 0.4015 ± 0.011 | 0.4344 ± 0.012 | 0.4713 ± 0.013 | 0.5146 ± 0.014 | 0.5589 ± 0.015 | 0.6331 ± 0.017 | 0.7325 ± 0.019 | 0.8607 ± 0.023 | 0.8982 ± 0.024

CC(Cl)(Cl)Cl + C1COCCO1
101.33 kPa
Conditions | viscosity
298.15 K, x1 = 0.102 | 1.141 ± 0.011 mPa·s
298.15 K, x1 = 0.201 | 1.097 ± 0.01 mPa·s
298.15 K, x1 = 0.3 | 1.057 ± 0.01 mPa·s
298.15 K, x1 = 0.4 | 1.016 ± 0.0096 mPa·s
298.15 K, x1 = 0.5 | 0.9762 ± 0.0093 mPa·s and 0.9767 ± 0.0093 mPa·s
298.15 K, x1 = 0.599 | 0.938 ± 0.009 mPa·s
298.15 K, x1 = 0.7 | 0.9003 ± 0.0086 mPa·s
298.15 K, x1 = 0.8 | 0.8635 ± 0.0083 mPa·s
298.15 K, x1 = 0.862 | 0.8404 ± 0.0081 mPa·s
303.15 K, x2 = 0.0725 | 0.7541 ± 0.0055 mPa·s
303.15 K, x2 = 0.1135 | 0.771 ± 0.0056 mPa·s
303.15 K, x2 = 0.2041 | 0.8089 ± 0.0059 mPa·s
303.15 K, x2 = 0.336 | 0.8625 ± 0.0063 mPa·s
303.15 K, x2 = 0.4193 | 0.8943 ± 0.0065 mPa·s
303.15 K, x2 = 0.5168 | 0.9291 ± 0.0067 mPa·s
303.15 K, x2 = 0.6428 | 0.97 ± 0.007 mPa·s
303.15 K, x2 = 0.7459 | 1.002 ± 0.0072 mPa·s
303.15 K, x2 = 0.8153 | 1.023 ± 0.0074 mPa·s
303.15 K, x2 = 0.9277 | 1.059 ± 0.0077 mPa·s

[Cl-].[Cl-].[Cl-].[La+3] + O
viscosity [mPa·s]
Conditions | 293.15 K | 298.15 K | 303.15 K | 308.15 K | 318.15 K
100 kPa, x1 = 0.000538 | 1.026 ± 0.012 | 0.9124 ± 0.01 | 0.8179 ± 0.0095 | 0.7374 ± 0.0086 | –
100 kPa, x1 = 0.000907 | 1.037 ± 0.012 | 0.922 ± 0.011 | 0.8265 ± 0.0096 | 0.7452 ± 0.0087 | –
100 kPa, x1 = 0.001802 | – | 0.9485 ± 0.011 | 0.8506 ± 0.0098 | 0.7674 ± 0.0089 | –
100 kPa, x1 = 0.003595 | 1.12 ± 0.013 | 0.9971 ± 0.011 | 0.8947 ± 0.01 | 0.8106 ± 0.0094 | –
100 kPa, x1 = 0.005372 | – | – | 0.9462 ± 0.011 | 0.857 ± 0.0099 | –
100 kPa, x1 = 0.007147 | – | – | – | 0.9116 ± 0.01 | –
100 kPa, x1 = 0.008936 | – | – | 1.076 ± 0.012 | 0.9725 ± 0.011 | –
100 kPa, x1 = 0.0107 | – | – | – | 1.041 ± 0.012 | –
101 kPa, x1 = 0.008899 | – | – | 1.075 ± 0.013 | – | –
101.3 kPa, x1 = 0.0009 | 1.037 ± 0.022 | 0.9217 ± 0.02 | 0.8261 ± 0.018 | 0.7453 ± 0.016 | 0.618 ± 0.013
101.3 kPa, x1 = 0.0018 | – | – | – | 0.7687 ± 0.016 | 0.6382 ± 0.013
101.3 kPa, x1 = 0.00893 | – | – | 1.076 ± 0.023 | 0.9735 ± 0.021 | 0.8112 ± 0.017
101.3 kPa, x1 = 0.0177 | 1.818 ± 0.039 | 1.623 ± 0.034 | 1.46 ± 0.031 | 1.322 ± 0.028 | 1.102 ± 0.023
101.3 kPa, x1 = 0.02631 | 2.522 ± 0.054 | 2.246 ± 0.048 | 2.016 ± 0.043 | 1.824 ± 0.039 | 1.516 ± 0.032
101.3 kPa, x1 = 0.03478 | 3.611 ± 0.077 | 3.199 ± 0.068 | 2.857 ± 0.061 | 2.573 ± 0.054 | 2.12 ± 0.045
101.3 kPa, x1 = 0.0431 | 5.287 ± 0.11 | 4.642 ± 0.099 | 4.114 ± 0.088 | 3.678 ± 0.078 | 2.992 ± 0.063
101.3 kPa, x1 = 0.05127 | 7.977 ± 0.17 | 6.922 ± 0.15 | 6.069 ± 0.13 | 5.371 ± 0.11 | 4.29 ± 0.091

CC(Cl)(Cl)Cl + CC1CCCO1
298.15 K, 101.33 kPa
Conditions | viscosity [mPa·s]
x1 = 0.099 | 0.5033 ± 0.0053
x1 = 0.2 | 0.5324 ± 0.0055
x1 = 0.299 | 0.5617 ± 0.0058
x1 = 0.398 | 0.5917 ± 0.006
x1 = 0.5 | 0.6234 ± 0.0063
x1 = 0.6 | 0.655 ± 0.0066
x1 = 0.7 | 0.6873 ± 0.0068
x1 = 0.8 | 0.7209 ± 0.0071
x1 = 0.869 | 0.7447 ± 0.0073

Cc1ccc(O)cc1C + CC12CCC(CC1=O)C2(C)C
101.33 kPa, x1 = 0.7
Conditions | viscosity [mPa·s]
293.15 K | 25.37 ± 2.6
298.15 K | 18.86 ± 1.9
303.15 K | 14.61 ± 1.5
308.15 K | 11.42 ± 1.2
313.15 K | 9.026 ± 0.91
318.15 K | 7.494 ± 0.76
323.15 K | 6.189 ± 0.62

O=CO + C1CCOC1
298.15 K, 101 kPa
Conditions | viscosity [mPa·s]
x2 = 0.0662 | 1.443 ± 0.017
x2 = 0.1376 | 1.396 ± 0.016
x2 = 0.2148 | 1.328 ± 0.015
x2 = 0.2985 | 1.233 ± 0.013
x2 = 0.3896 | 1.114 ± 0.012
x2 = 0.4891 | 0.9824 ± 0.01
x2 = 0.5983 | 0.8395 ± 0.0082
x2 = 0.7186 | 0.6886 ± 0.0065
x2 = 0.8517 | 0.5576 ± 0.0051

O=CO + CC#N
303.15 K, 101 kPa
Conditions | viscosity [mPa·s]
x1 = 0.0912 | 0.386 ± 0.0081
x1 = 0.1824 | 0.422 ± 0.0088
x1 = 0.2772 | 0.468 ± 0.0097
x1 = 0.3728 | 0.523 ± 0.011
x1 = 0.4721 | 0.597 ± 0.012
x1 = 0.5735 | 0.691 ± 0.014
x1 = 0.6751 | 0.801 ± 0.016
x1 = 0.7806 | 0.962 ± 0.019
x1 = 0.8891 | 1.17 ± 0.024

C1CCOCC1 + CCCCO
viscosity [mPa·s], 101.3 kPa
Conditions | x1 = 0.0478 | x1 = 0.0969 | x1 = 0.1984 | x1 = 0.288 | x1 = 0.3973 | x1 = 0.5005 | x1 = 0.6788 | x1 = 0.7023 | x1 = 0.8041 | x1 = 0.9024
298.15 K | 2.294 ± 0.029 | 2.056 ± 0.026 | 1.662 ± 0.021 | 1.426 ± 0.018 | 1.222 ± 0.016 | 1.087 ± 0.014 | 0.931 ± 0.013 | 0.9162 ± 0.012 | 0.8645 ± 0.012 | 0.8316 ± 0.011
313.15 K | 1.633 ± 0.021 | 1.483 ± 0.019 | 1.255 ± 0.016 | 1.086 ± 0.014 | 0.9459 ± 0.013 | 0.8494 ± 0.011 | 0.7345 ± 0.01 | 0.7252 ± 0.01 | 0.6832 ± 0.0096 | 0.6584 ± 0.0093

CC/C(C)=N/O + CCC(C)=O
viscosity [mPa·s], 101.3 kPa
Conditions | x1 = 0.0846 | x1 = 0.1716 | x1 = 0.2627 | x1 = 0.3557 | x1 = 0.4528 | x1 = 0.5541 | x1 = 0.6588 | x1 = 0.768 | x1 = 0.8817
293.15 K | 0.459 ± 0.004 | 0.533 ± 0.004 | 0.625 ± 0.005 | 0.759 ± 0.006 | 0.922 ± 0.007 | 1.162 ± 0.008 | 1.511 ± 0.01 | 2.066 ± 0.014 | 3.035 ± 0.02
298.15 K | 0.438 ± 0.004 | 0.508 ± 0.004 | 0.592 ± 0.005 | 0.714 ± 0.005 | 0.86 ± 0.006 | 1.073 ± 0.008 | 1.368 ± 0.009 | 1.836 ± 0.012 | 2.619 ± 0.017
303.15 K | 0.416 ± 0.003 | 0.479 ± 0.004 | 0.558 ± 0.004 | 0.667 ± 0.005 | 0.802 ± 0.006 | 0.987 ± 0.007 | 1.249 ± 0.009 | 1.655 ± 0.011 | 2.306 ± 0.015

From the CheMixHub viscosity set
